# Experimental data: patent US7049334B2, “Enhancement of learning and memory and treatment of amnesia” (priority 2001, dated 2006)
# Values joined by “and” are separate entries in the source; they are usually repeats but may differ in a detail not shown here. Equal entries are not always repeated.
# Tests used:
# [1] = tested on: rats (passive avoidance learning); assay: One-trial step-through passive inhibitory avoidance task; assay type: in vivo
# Text: Passive Avoidance and active avoidance task: Rats were trained and tested on a one-trial step-through passive inhibitory avoidance task with a procedure as described in Liang et al. (1998, Chin. J. Physiol. 41: 33–44). Briefly, an apparatus was a trough-shape alley divided by a sliding door into a well-lit safe compartment and a dark shock compartment. A rat was placed in the lit side facing away from the door. As the rat turned around, the door was opened. After the rat stepped into the dark compartment, it received an inescapable footshock via a constant current shocker controlled by a timer (Lafayette Instruments, Model 80240 and Model 58010, Indiana, USA). After administration of the foot-shock, the rat was removed from the alley and returned to its home cage. In a retention test given 24 hrs or 10 days later, the rat was reintroduced into the alley and the latency of stepping into the shock compartment with all four feet was taken as a retention score.
# The amygdala is also implicated in learning and memory. Studies have shown that this brain structure is particularly involved in processing affective information. See, e.g., Cahill and McGaugh (1990) Behav. Neurosci. 104: 532–543; and Gilbert et al. (1991) Behav. Neurosci. 105: 533–561. It has been reported that nitric oxide is also involved in activity-dependent synaptic plasticity and passive avoidance learning in amygdaloid nucleus. See, e.g., Bernabeu et al. (1995) NeuroReport 6: 1498–1500; Watanabe et al. (1995) Brain Res. 688: 233–236; and Teledgy and Kokavszky (1997) Neuropharmacology 36: 1583–1587. The effect of Compound 1 on passive avoidance learning was studied. Compound 1 was injected (i.p., 1 mg/kg) 10 min before foot-shock training. […] The memory lasts for several days. The retention scores were very high even if tested on day 10. There were much more rats which had retention latencies longer than 5 min in Compound 1-treated rats (2 out of 15 in a control group and 11 out of 12 in a Compound 1-treated group, respectively) tested on both day-1 and day-10. When the Compound 1 was mixed with 1.25% CMC and delivered to stomach directly (10 mg/kg) before foot-shock. The retention test was performed 1 day and 10 days later, respectively. […] Rats of 1-year-old were chosen for this experiment. Compound 1 (1 mg/kg) was i.p. injected 10 min before foot-shock. The retention test was performed 1 day and 10 days later, respectively.
# [2] = tested on: rats (active avoidance); assay: Active avoidance task; assay type: in vivo
# Procedure: For the test of active avoidance, the rat was placed in the dark compartment, facing the door. The door was opened halfway, and the rat had 10 sec to shuttle over the door to lit compartment. Rat was not chosen for this experiment if the rat crossed to the safe side within 10 sec. Foot-shock was turned on at 10 s later. Rat escaped into safe compartment and the door was closed. The retention time on dark shock compartment was measured 48 hr later. The rats were discarded once the rats enter lit compartment within 10 s on the day of context training. Foot-shock was administered 10 s after putting in the dark compartment on day-1. Memory retention was tested on day-2.
# [3] = tested on: cortico-amygdala pathway (lateral amygdala); assay: LTP in cortico-amygdala pathway (fEPSP); assay type: cell-based, Wistar rats; conditions: three trains (100 Hz, 1 sec at 3 min interval); in the presence of compound 1; n=4
# Procedure: After decapitation, brains of either adult ([…], for the induction of long-term potentiation) or young (2–3 weeks old, for the induction of long-term depression) Wistar rats were rapidly removed, and the hippocampus was dissected out. Transverse hippocampal slices (450 μm thickness) were immediately placed in an ice-cold cutting buffer containing 124 mM NaCl, 3 mM KCl, 1.0 mM Na2HPO4, 25 mM NaHCO3, 0.5 mM CaCl2, 5.0 mM MgSO4, 10 mM glucose, saturated with 95% O2 and 5% CO2. The slices were then maintained in an interface chamber at room temperature, and perfused at flow rate of 1–2 mL/min with artificial cerebrospinal fluid (ACSF). […] The test pulse duration was 100 μsec, and test responses were elicited at 0.02 Hz. To record field potentials in the cortico-amygdala pathway, a stimulating electrode was placed in the external capsule, which contained fibers from the auditory cortex to the lateral amygdala. Bicuculine (10 μM) was present in the perfusion solution when the fEPSPs of amygdala were recorded. […] Evoked fEPSPs were recorded and data were analyzed. The initial slope of the fEPSPs was calculated, and the data were expressed as percentages of the average of the base-line slope of the fEPSPs. […]
# [4] = tested on: mice (motor learning); assay: Rotorod test; assay type: in vivo; conditions: i.p. 1 mg/kg 20 min before first trial, 28 rpm
# Procedure: Rotorod Test: This experiment was performed with mice (male, 20–25 gm). A rotorod apparatus was a plastic cylindrical rod (3 cm in diameter×13 cm in length). The rod was supported at the ends by two walls and was 25 cm from the base of the walls. The walls at the ends of the rod were high enough so that the mice cannot climb off the rod. Three trials were performed for each experiment. Compound 1 (1 mg/kg) or vehicle was i.p. injected 20 min before the first trial. For each trial of the rotorod test, the mice were placed on the rod and timed until they fell off the rod. They were timed up to a maximum of 3 min. The interval was 10 min. The rod was turned by an electric motor at 28 rpm.
# Cerebellar nitric oxide has been also reported to be involved in LTD and motor learning. See, e.g., Li et al. (1995) J. Neurophysiol. 74: 489–494. Compound 1 improving motor learning was studied. Mice were chosen for this kind of experiment. […] The performance of control mice got improvement with increasing trial numbers, with a better improvement at the third trial. […] It is obvious that Compound 1 can also improve motor learning by mainly acting on the cerebellum.
# [5] = aged rats (1-year-old), i.p. 1 mg/kg 10 min before foot-shock
# [6] = aged rats (1-year-old), i.p. 1 mg/kg 10 min before foot-shock, 1 mg/kg
# [7] = oral 10 mg/kg in 1.25% CMC before foot-shock
# [8] = oral 10 mg/kg in 1.25% CMC before foot-shock, ceiling 300 s or 600 s, 10 mg/kg
# [9] = injection 10 min before foot-shock
smiles,measurement,setting,value
"OCc1ccc(-c2nn(Cc3ccccc3)c3ccccc23)o1 [Compound 1, 1-benzyl-3-(5′-hydroxymethyl-2′-furyl)-indazole]","enhancement effect induced by Compound 1, with KT5823",[1]; KT5823 i.c.v. 0.2 nmole,significantly antagonized
same,"enhancement effect induced by Compound 1, with L-NAME",[1]; L-NAME i.c.v. 1 mmole,significantly antagonized
same,retention scores when given before context training,[1]; administered 10 min before the context training instead of the foot-shock,prolonged the retention scores
same,"Retention Scores Day-1, mean ± std",[1]; [5],mean ± std 233.0 ± 47.3 sec
same,"Retention Scores Day-10, mean ± std",[1]; [5],181.4 ± 55.7 s
same,"Retention Scores Day-1, individual rats",[1]; [6],>300 sec (3×) and 207.1 sec and 58.1 sec
same,"Retention Scores Day-10, individual rats",[1]; [6],252.2 s and 255.9 s and 85.8 s and >300 s and 12.9 s
same,retention latencies in the lighted compartment,[1]; i.p. 1 mg/kg 10 min before foot-shock training,markedly prolonged
same,rats with retention latencies longer than 5 min,"[1]; i.p. 1 mg/kg, tested on both day-1 and day-10",11 out of 12
same,effect on avoidance behavior when injected after foot-shock,[1]; injected 30 min after foot-shock,did not exert any effect
same,"Retention Scores Day-1, mean ± std",[1]; [7],mean ± std 369.2 ± 70.2 sec
same,"Retention Scores Day-10, mean ± std",[1]; [7],437.3 ± 62.4 s
same,"Retention Scores Day-1, individual rats",[1]; [8],>600 sec (4×) and 15.0 sec and >300 sec (4×) and 77.1 sec
same,"Retention Scores Day-10, individual rats",[1]; [8],454.0 sec and >600 sec (4×) and 15.0 sec and 207.1 sec and 453.2 sec and 343.2 sec and 500.2 sec
same,"memory enhancement effect induced by Compound 1, with KT5823",[2]; KT5823 i.c.v. 0.2 nmole,effectively inhibited
same,"memory enhancement effect induced by Compound 1, with L-NAME",[2]; L-NAME i.c.v. 1 mmole,effectively inhibited
same,escape latency from the shock- to the safe-compartment,[2]; [9],decrease
same,retention of memory,[2]; [9],noticeable increase
same,duration of enduring LTP in amygdala,[3],at least 1 hr
same,motor coordination on a turning rotorod,[4],significantly improved motor coordination
